By IC50 is commonly meant the point on the concentration scale where inhibition reaches its midpoint. Low values mean higher potency, high ones lower potency.

In the first experiment the target is FGFR2 (Homo sapiens, UniProt P21802). Description: FGFR wild type enzyme assay (HTRF KinEASE-TK), FGFR2. The settings on record: Enz FGFR2 (nM). A general note: In TR-FRET formats the signal depends on donor and acceptor labels being close together.
Chain of FGFR2 (P21802 399-821 limits assumed): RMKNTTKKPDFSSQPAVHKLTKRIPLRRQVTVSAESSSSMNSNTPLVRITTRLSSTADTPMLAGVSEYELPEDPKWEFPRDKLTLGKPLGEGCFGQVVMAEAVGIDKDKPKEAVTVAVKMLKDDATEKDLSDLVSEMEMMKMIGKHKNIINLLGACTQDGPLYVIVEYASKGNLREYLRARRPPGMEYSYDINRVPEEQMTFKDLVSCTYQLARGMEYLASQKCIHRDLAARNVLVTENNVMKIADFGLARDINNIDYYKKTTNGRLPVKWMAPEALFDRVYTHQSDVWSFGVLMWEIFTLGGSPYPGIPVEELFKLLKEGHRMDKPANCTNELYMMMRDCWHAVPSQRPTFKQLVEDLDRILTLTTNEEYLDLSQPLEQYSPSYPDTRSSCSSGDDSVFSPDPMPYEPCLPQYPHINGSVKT
As to `Cc1ccc(Sc2cc(-c3cnn(C4CCNCC4)c3C)cn3ncc(C#N)c23)nc1C` [Example 129], it took 2 nM to reach half-maximal inhibition (IC50).

In the case of `Cn1ncc2cc(Sc3cc(-c4cnn([C@H]5CCCNC5)c4)cn4ncc(C#N)c34)ccc21` [Example 57, 4-(1-methylindazol-5-yl)sulfanyl-6-[1-[(3S)-3-piperidyl]pyrazol-4-yl]pyrazolo[1,5-a]pyridine-3-carbonitrile], the IC50 worked out at 13 nM. Turning to `CC(C)Sc1cc(-c2cnn([C@H]3CCCN(C[C@H](O)CO)C3)c2)cn2ncc(C#N)c12` [Example 88, 6-[1-[(3S)-1-[(2S)-2,3-dihydroxypropyl]-3-piperidyl]pyrazol-4-yl]-4-isopropylsulfanyl-pyrazolo[1,5-a]pyridine-3-carbonitrile], the IC50 came to 1 nM. Compared with the last molecule, the IC50 is about 13-fold lower.

The same experiment, now with this note: Enz FGFR2 (nM), FGFR2 wild type enzyme.
The molecule `Cc1c(-c2cc(Sc3ncccc3F)c3c(C#N)cnn3c2)cnn1C1CCN(Cc2ccccn2)CC1` [Example 240, 4-((3-fluoropyridin-2-yl)thio)-6-(5-methyl-1-(1-(pyridin-2-ylmethyl)piperidin-4-yl)-1H-pyrazol-4-yl)pyrazolo[1,5-a]pyridine-3-carbonitrile] came in with an IC50 of 2 nM.

Turning to `Cc1c(-c2cc(Sc3ccc(F)cc3C#N)c3c(C#N)cnn3c2)cnn1[C@H]1CC[C@@](C)(O)CC1` [Example 324, 4-((2-cyano-4-fluorophenyl)thio)-6-(1-((1s,4s)-4-hydroxy-4-methylcyclohexyl)-5-methyl-1H-pyrazol-4-y)pyrazolo[1,5-a]pyridine-3-carbonitrile], the IC50 was 1 nM. Compared with the last molecule, the IC50 is about 2-fold lower. On the same count and under the same terms, the same measure for `Cc1nn([C@H]2CC[C@@H](N(C)C)CC2)c(C)c1-c1cc(Sc2ncccc2F)c2c(C#N)cnn2c1` [Example 304, 6-(1-((1s,4s)-4-(dimethylamino)cyclohex-yl)-3,5-dimethyl-1H-pyrazol-4-yl)-4-((3-fluoropyridin-2-yl)thio)pyrazolo[1,5-a]pryidine-3-carbonitrile]: 3.5 nM; for `CC(=O)N1CCC(Cn2ncc(-c3cc(Sc4ncccc4F)c4c(C#N)cnn4c3)c2C)CC1` [Example 205, 6-(1-((1-acetylpiperidin-4-yl)methyl)-5-methyl-1H-pyrazol-4-yl)-4-((3-fluoropyridin-2-yl)thio)pyrazolo[1,5-a]pyridine-3-carbonitrile]: 3 nM; for `CC(=O)N1CCC[C@H](Cn2ncc(-c3cc(Sc4ncccc4F)c4c(C#N)cnn4c3)c2C)C1` [Example 207, (S)-6-(1-((1-acetylpiperidin-3-yl)methyl)-5-methyl-1H-pyrazol-4-yl)-4-((3-fluoropyridin-2-yl)thio)pyrazolo[1,5-a]pyridine-3-carbonitrile]: 5 nM. The same measure, in the same setting: for `Cc1c(-c2cc(Sc3ncccc3F)c3c(C#N)cnn3c2)cnn1[C@H]1CC[C@@H](NS(C)(=O)=O)CC1` [Example 177, N-((1s,4s)-4-(4-(3-cyano-4-((3-fluoropyridin-2-yl)thio)pyrazolo[1,5-a]pyridin-6-yl)-5-methyl-1H-pyrazol-1-yl)cyclohexyl)methane-sulfonamide] the value was 1 nM; for `Cc1c(-c2cc(Sc3ncccc3F)c3c(C#N)cnn3c2)cnn1C1CC2(CCNCC2)C1` [Example 162, 4-((3-fluoropyridin-2-yl)thio)-6-(5-methyl-1-(7-azaspiro[3.5]nonan-2-yl)-1H-pyrazol-4-yl)pyrazolo[1,5-a]pyridine-3-carbonitrile], 1 nM.

Molecule `CCN(C)[C@H]1CC[C@@H](n2ncc(-c3cc(Sc4ccccc4C#N)c4c(C#N)cnn4c3)c2C)CC1` [Example 256, 4-((2-cyanophenyl)thio)-6-(1-((1s,4s)-4-(ethyl(methyl)amino)cyclo-hexyl)-5-methyl-1H-pyrazol-4-yl)pyrazolo[1,5-a]pyridine-3-carbonitrile] had an IC50 of 1 nM. Take `CN[C@]1(C)CC[C@H](n2ncc(-c3cc(Sc4ccc(F)cc4C#N)c4c(C#N)cnn4c3)c2C)CC1` [Example 326, 4-((2-cyano-4-fluoorphenyl)thio)-6-(5-methyl-1-((1s,4s)-4-methyl-4-(methylamino)cyclohxyl)-1H-pyrazol-4-eyl)pyrazolo[1,5-a]pyridine-3-carbonitrile]: half-maximal inhibition (IC50) required 1 nM. With `CC(=O)N1CC[C@]2(CC[C@@H](n3ncc(-c4cc(Sc5ccccc5C#N)c5c(C#N)cnn5c4)c3C)CC2)C1` [Example 321, 6-(1-((5r,8r)-2-acetyl-2-azaspiro[4.5]decan-8-yl)-5-methyl-1H-pyrazol-4-yl)-4-((2-cyanophenyl)thio)pyrazolo [1,5-a]pyridine-3-carbonitrile], 1 nM corresponded to half-maximal inhibition (IC50). That is a single-digit nanomolar value. With `Cc1c(-c2cc(Sc3ncccc3F)c3c(C#N)cnn3c2)cnn1[C@@H]1CC[C@H](O)[C@H](O)C1` [Example 296, 6-(1-((1R,3R,4S)-3,4-dihydroxycyclohexyl)-5-methyl-1H-pyrazol-4-yl)-4-((3-fluoropyridin-2-yl)thio)pyrazolo[1,5-a]pyridine-3-carbonitrile], the IC50 worked out at 2 nM.

Still in this experiment, the particulars now being: Enz FGFR2 (nM), FGFR2 wild type enzyme assay.
The molecule `CN(CCO)c1ccc(-c2cc(Sc3ccc(F)cc3C#N)c3c(C#N)cnn3c2)cn1` [Example 639, 4-((2-cyano-4-fluorophenyl)thio)-6-(6-((2-hydroxyethyl)(methyl)ami-no)pyridin-3-yl)pyrazolo[1,5-a]pyridine-3-carbonitrile] gave an IC50 of 1.5 nM. In other words, the single-digit nanomolar range.

Consider `C[C@@H](O)C(=O)N1CCC(n2cc(-c3cc(Sc4ccc(F)cc4C#N)c4c(C#N)cnn4c3)cn2)CC1` [Example 502, (R)-4-((2-cyano-4-fluorophenyl)thio)-6-(1-(1-(2-hydroxypropanoyl)piperidin-4-yl)-1H-pyrazol-4-yl)pyrazolo[1,5-a]pyridine-3-carbonitrile], for which the IC50 came out at 1 nM.

For `CC(=O)N1CCC(n2nc(C)c(-c3cc(Sc4ncccc4F)c4c(C#N)cnn4c3)c2F)CC1` [Example 454, 6-(1-(1-acetylpiperidin-4-yl)-5-fluoro-3-methyl-1H-pyrazol-4-yl)-4-((3-fluoropyridin-2-yl)thio)pyrazolo[1,5-a]pyridine-3-carbonitrile], the IC50 worked out at 12 nM. Still for that read-out and setting: the same measure for `N#Cc1cnn2cc(-c3ccc(N4CCOCC4)nc3)cc(Sc3ncccc3F)c12` [Example 491, 4-((3-fluoropyridin-2-yl)thio)-6-(6-morpholinopyridin-3-yl)pyrazolo[1,5-a]pyridine-3-carbonitrile]: 1 nM; for `Cn1ccc(Cn2cc(-c3cc(Sc4ccccc4C#N)c4c(C#N)cnn4c3)cn2)n1` [Example 375, 4-((2-cyanophenyl)thio)-6-(1-((1-methyl-1H-pyrazol-3-yl)methyl)-1H-pyrazol-4-yl)pyrazolo[1,5-a]pyridine-3-carbonitrile]: 0.6 nM; for `CC(=O)N1CCC(n2ncc(-c3cc(Sc4ccccc4C#N)c4c(C#N)cnn4c3)c2F)CC1` [Example 398, 6-(1-(1-acetylpiperidin-4-yl)-5-fluoro-1H-pyrazol-4-yl)-4-((2-cyanophenyl)thio)pyrazolo [1,5-a]pyridine-3-carbonitrile]: 2 nM. The same measure, in the same setting: the same measure for `C[C@]1(O)CC[C@@H](n2cc(-c3cc(Sc4ccc(F)cc4C#N)c4c(C#N)cnn4c3)cn2)CC1` [Example 500, 4-((2-cyano-4-fluorophenyl)thio)-6-(1-((1s,4s)-4-hydroxy-4-methylcyclohexyl)-1H-pyrazol-4-yl)pyrazolo[1,5-a]pyridine-3-carbonitrile]: 1 nM; for `Cn1cc(-c2cc(Sc3ccccn3)c3c(C#N)cnn3c2)cn1` [Example 616, 6-(1-methyl-1H-pyrazol-4-yl)-4-(pyridin-2-ylthio)pyrazolo[1,5-a]pyridine-3-carbonitrile]: 6 nM.

For the origin of these results see US20240270741A1 (Cogent Biosciences, Inc., priority 2023, published 2024).
